Assay results reported in patent US8143447B2, “Treatment of cancer” (BiPar Sciences, Inc., priority 2006, dated 2012).
“Also recorded” adds a separate entry of the source.

How the values were obtained:
[1] = BA metabolite identification by LC/MS/MS from canine plasma; type: in vivo, dog; settings: canine plasma after BA administration; equivalents measured using BSI-201 in the 1 μg/ml spike sample as reference standard
Description: (§1) Plasma samples were obtained from dog, rat and mouse studies, in which animals were administered 4-iodo-3-nitrobenzamide (BA). Plasma and tumor samples were prepared for HPLC injection by precipitating plasma (50 μl) with 3× volumes (150 μl) of acetonitrile. Tissue samples were prepared for HPLC injection by adding 1 μl of acetonitrile per mg of tissue, then homogenizing with an electric homogenizer. Following centrifugation, 150 μl of each supernatant was evaporated to dryness, reconstituted in 50 μl of 0.2% formic acid in water and analyzed by chromatography and mass spectrometry techniques (LC/MS/MS conditions). LC/MS/MS conditions are: HPLC (Shimadzu VP System); Mobile Phase: 0.2% formic acid in water (A) and 0.18% formic acid in methanol (B); Column: 1×50 mm Thermo BetaBasic C18 column; Injection volume: 25 μL; Gradient: 0-60% B in 30 minutes; Flow Rate: 100 μL/min; Mass Spectrometer: Applied Biosystems/MDS SCIEX Q-STAR; Interface: IonSpray split at 1/10; Parent Ion Scan: TOF Positive from 200-900 amu; Product Ion Scan: TOF Product Ion from 60-900 amu of most intense Ion in Parent Ion Scan; TOF calibration: Externally calibrated using Renin Substrate. Results of metabolite identification from dog and mouse plasma are depicted in Tables 1-3, as follows: […]

[2] = BA metabolite identification by LC/MS/MS from canine plasma and red blood cells; type: in vivo, dog; settings: equivalents by 270 nm UV peak area of BSI-201 in the 5 μg/ml spike sample
Description: as §1

[3] = system: HTC116 cells; test: Cell-cycle analysis (DNA content, flow cytometry); type: cell-based; settings: treated for 19 hours
Description: HCT116 and Hela cells were obtained from ATCC. For DNA content analysis, 2×10^5 cells were washed twice with PBS and fixed in 70% ethanol. Cells were treated with 100 units/mL RNase A for 20 minutes at 37° C., resuspended in cold PBS containing Alexa Fluor® 405 fluorescent stain (Invitrogen) according to the manufacturer's protocol. Cells were analyzed by flow cytometry. FIG. 1 illustrates (FACS dot plots and histograms) cell-cycle analysis in HTC116 cells treated with PARP-1 inhibitor (4-iodo-3-nitrobenzamide or “BA”) for 19 hours.

[4] = system: KB V-1 cells; test: Colony-forming assay, KB V-1 cells (MDR1 overexpressing); type: cell-based, human; settings: KB V-1 (MDR1 overexpressing, vinblastine resistant) cells, 0-100 μM, 14 days
Excerpt: (§2) KB-V1 is a vinblastine resistant clone of KB-3-1 human carcinoma cell line (Fojo, A. T., J Whang-Peng, M. M. Gottesman, and I. Pastan. 1985. Amplification of DNA sequences in human multidrugresistant KB carcinoma cells. Proc. Natl. Acad. Sci. USA 82:7661-7665., Shen, D.-W., C. Cardarelli, J lwang, M. Cornwell, N. Richert, S. Ishii, I. Pastan, and M. M. Gottesman. 1986. Multiple drug-resistant human KB carcinoma cells independently selected for high-level resistance to colchicine, Adriamycin, or vinblastine show changes in expression of specific proteins. J. Biol. Chem. 261:7762-7770). Cells were propagated in Eagle minimal essential medium with 10% fetal bovine serum.
(§3) Cells were trypsinized, counted, and diluted to a final concentration of 10^6 cells/ml. Colony-forming assays were performed by plating an appropriate number of cells into culture dishes in triplicates and treated with 0-100 μM of a compound. After 14 days, cells were fixed and stained with 1% crystal violet, and colonies were counted.

[5] = BA metabolite identification by LC/MS/MS from murine plasma; type: in vivo, mouse; settings: murine plasma after BA administration; equivalents measured using BSI-201 in the 1 μg/ml spike sample as reference standard
Description: as §1

[6] = system: KB 3-1 cells; test: Colony-forming assay, KB 3-1 cells; type: cell-based, human; settings: KB 3-1 (MDR1 normal) cells, 0-100 μM, 14 days
Excerpt: as §2, §3

[7] = system: adult tumor cell lines; settings: a number of adult tumor cell lines; cited from earlier work
[8] = system: established adult tumor lines s.c. implanted in nude mice; settings: administered p.o.; cited from earlier work

| SMILES | Approximate [1] | Approximate μg/ml Plasma ([2]; canine plasma) | Approximate μg/ml RBC ([2]; canine red blood cells) | S phase cell cycle ([3]; compared to control) | number of cells in the G1 phase ([3]; control 18.6%) | number of cell colonies / cell death [4] | Approximate [5] | number of cell colonies / cell death [6] | IC50 of tumor cell growth inhibition [7] | growth of established adult tumor lines [8] | toxicities [8] |
| --- | --- | --- | --- | --- | --- | --- | --- | --- | --- | --- | --- |
| NC(=O)c1ccc(I)c([N+](=O)[O-])c1 [BA, 4-iodo-3-nitrobenzamide] | ~1.9 ng/mL | ~2.1 µg/mL | ~1.6 µg/mL | decrease | 48.6% | dose-dependent cell death; also recorded: reduces the number of cell colonies in a dose-dependant manner | ~3.7 ng/mL | dose-dependent cell death; also recorded: reduces the number of cell colonies in a dose-dependant manner | – | – | – |
| Nc1ccccc1NC(=O)c1ccc(CNC(=O)OCc2cccnc2)cc1 [MS-27-275] | – | – | – | – | – | – | – | – | submicromolar range | inhibited the growth | minimal toxicities |
| NC(=O)c1ccc(I)c(O)c1 [M4 (263 m/z)] | ~12 ng/mL | – | – | – | – | – | ~56 ng/mL | – | – | – | – |
